The values below come from patent US12122779B2, “Pyrrolo-pyridazine derivatives as muscarinic M1 receptor positive allosteric modulators” (SUVEN LIFE SCIENCES LIMITED, priority 2018, dated 2024).

For one data set, the system named is Male Swiss mice. In words: Effect on colonic transit. In kind it is in vivo. The note with it: doses of 1 and 3 mg/kg, p.o., carmine dye, 3 hours after dye. The procedure: Effect on Colonic Transit
Male Swiss mice of body weight ˜20-30 g were fasted for 16 hours with free access to water prior to the experiment. Mice were administrated example 1 or vehicle, 30 min after administration of 0.5 ml of carmine dye solution. Mice were sacrificed 3 hours after dye administration and the distance traveled by the dye from proximal colon was measured. Colonic transit was expressed as % colonic transit=100×(length of colon in which carmine moved/total length of colon).

A short description of data set [1]: Rodent brain penetration study. It counts as in vivo, Male Wistar rats. The settings on record: male, Wistar, brain and plasma, po; rat, 3 mg/kg p.o., brain-plasma ratio; read-out: Single dose Rat Brain Penetration (Cb/Cp) at 3 mg/kg, p.o. The procedure:
Rodent Brain Penetration Study
Male Wistar rats (260±40 grams) were used as experimental animals. Three animals were housed in each cage. Animals were given water and food ad libitum throughout the experiment and maintained on a 12 h light/dark cycle.
Brain penetration was determined in discrete manner in rats. One day prior to dosing day, male Wistar rats were acclimatized and randomly grouped according to their weight. At each time point (0.50, 1 and 2 h) n=3 animals were used.
The test compounds were suitably preformulated and administered orally at (free base equivalent) 3 mg/kg. Blood samples were removed via cardiac puncture by using isoflurane anesthesia. The animals were sacrificed to collect brain tissue. Plasma was separated and brain samples were homogenized and stored frozen at −20° C. until analysis. The concentrations of the test compounds in plasma and brain were determined using LC-MS/MS method.
The test compounds were quantified in plasma and brain homogenate by qualified LC-MS/MS method using suitable extraction technique. The test compounds were quantified in the calibration range of 1-500 ng/mL in plasma and brain homogenate. Study samples were analyzed using calibration samples in the batch and quality control samples spread across the batch. Extent of brain-plasma ratio (Cb/Cp) was calculated.

In data set [2] the target is T1, recombinant human Muscarinic M1 receptor (Homo sapiens, UniProt P11229).
T1 sequence (P11229 1-460): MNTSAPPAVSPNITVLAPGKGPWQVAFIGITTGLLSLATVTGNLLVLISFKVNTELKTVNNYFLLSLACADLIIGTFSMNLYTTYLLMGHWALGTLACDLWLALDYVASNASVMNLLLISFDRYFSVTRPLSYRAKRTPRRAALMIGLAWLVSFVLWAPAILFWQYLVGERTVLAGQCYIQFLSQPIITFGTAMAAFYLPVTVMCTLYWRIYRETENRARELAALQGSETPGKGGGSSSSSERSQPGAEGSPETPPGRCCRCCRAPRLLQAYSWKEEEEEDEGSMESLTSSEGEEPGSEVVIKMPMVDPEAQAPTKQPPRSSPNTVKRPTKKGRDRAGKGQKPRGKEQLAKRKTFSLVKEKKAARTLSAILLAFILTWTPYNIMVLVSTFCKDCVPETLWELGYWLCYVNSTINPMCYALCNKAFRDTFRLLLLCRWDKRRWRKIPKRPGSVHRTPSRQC
The experiment in a line: Allosteric potency EC50 for muscarinic M1 receptor, CHO pCRE-Luc reporter cell-based assay with EC20 of acetylcholine. The settings on record: CHO cells, luciferase activity, in presence of EC20 of acetylcholine, 4 hours. As to the method: Determination of Allosteric Potency EC50 Values for Muscarinic M1 Receptor
A stable CHO cell line expressing recombinant human Muscarinic M1 receptor and pCRE-Luc reporter system was used for cell-based assay. The assay offers a non-radioactive based approach to determine binding of a compound to GPCRs. In this specific assay, the level of intracellular cyclic AMP which is modulated by activation or inhibition of the receptor is measured. The recombinant cells harbor luciferase reporter gene under the control of cyclic AMP response element.
The above cells were grown in 96 well clear bottom white plates in Hams F12 medium containing 10% fetal bovine serum (FBS). Prior to the addition of compounds or standard agonist, cells were serum starved overnight. Increasing concentrations of test compounds were added along with EC20 of acetylcholine in OptiMEM medium to the cells. The incubation was continued at 37° C. in CO2 incubator for 4 hours. Medium was removed and cells were washed with phosphate buffered saline. The cells were lysed and luciferase activity was measured in a Luminometer. Luminescence units were plotted against the compound concentrations using Graphpad software.

Data set [3] in a line: Rodent pharmacokinetic study. The note with it: male, Wistar, plasma, rat; for bioavailability: oral 3 mg/kg vs intravenous 1 mg/kg, read-out: F (%) Bioavailability. It counts as in vivo, Male Wistar rats. The procedure: Rodent Pharmacokinetic Study
Male Wistar rats (260±50 grams) were used as experimental animals. Animals were housed individually in polypropylene cage. Two days prior to study, male Wistar rats were anesthetized with isoflurane for surgical placement of jugular vein catheter. Rats were randomly divided for oral (3 mg/kg) and intravenous (1 mg/kg) dosing (n=3/group) and fasted overnight before oral dosing (p.o.). However, rats allocated to intravenous dosing food and water was provided ad libitum.
At pre-determined point, blood was collected through jugular vein and replenished with an equivalent volume of normal saline. Collected blood was transferred into a labeled eppendorf tube containing 10 μL of heparin as an anticoagulant. Typically blood samples were collected at following time points: 0.08, 0.25, 0.5, 1, 2, 4, 6, 8, and 24 h post dose. Blood was centrifuged at 4000 rpm for 10 minutes. Plasma was separated and stored frozen at −80° C. until analysis. The concentrations of the test compounds were quantified in plasma by qualified LC-MS/MS method using suitable extraction technique. The test compounds were quantified in the calibration range around 1-1000 ng/mL in plasma. Study samples were analyzed using calibration samples in the batch and quality control samples spread across the batch.
Pharmacokinetic parameters Cmax, AUCt, T1/2, Clearance and Bioavailability (F) were calculated by non-compartmental model using standard non-compartmental model by using Phoenix WinNonlin 6.0.4 version Software package.

Data set [4] deals with Male Wistar rats. The experiment in a line: Object recognition task model. In kind it is in vivo. The note with it: rat, 3 mg/kg, p.o. As to the method: Object Recognition Task Model
Male Wistar rats (8-10 weeks old) were used as experimental animals. Four animals were housed in each cage. Animals were kept on 20% food deprivation from a day prior to experimentation. Water was provided ad libitum throughout the experiment. Animals were maintained on a 12 h light/dark cycle in temperature and humidity controlled room. The experiment was carried out in a circular or square arena made up of acrylic. Rats were habituated to individual arenas for up to 1 hour in the absence of any objects on day 1.
One group of 12 rats received vehicle and another set of animals received test compounds, before familiar (T1) and choice (T2) trials. During the familiarization phase, (T1), the rats were placed individually in the arena for 3 minutes, in which two identical objects (a1 and a2) were positioned 10 cm from the wall. 24 h after T1, trial for long-term memory test was performed. The same rats were placed in the same arena as they were placed in T1 trial. During the choice phase (T2) rats were allowed to explore the arena for 3 minutes in presence of a copy of familiar object (a3) and one novel object (b). During the T1 and T2 trial, explorations of each object (defined as sniffing, licking, chewing or having moving vibrissae whilst directing the nose towards the object at a distance of less than 1 cm) were recorded using stopwatch. • T1 is the total time spent exploring the familiar objects (a1+a2). • T2 is the total time spent exploring the familiar object and novel object (a3+b).
The object recognition test was performed as described in Behav. Brain Res., 1988, 31, 47-59.

Data set [5] relates to Male Wistar rats. In words: Object recognition task model (combination study with donepezil). The note with it: rat, combination of sub efficacious doses with donepezil (FIG. 1). It counts as in vivo. The procedure: Object Recognition Task Model (Combination Study)
The cognition enhancing properties of compounds of this invention were estimated by using this model.
Male Wistar rats (8-10 weeks old) were used as experimental animals. Four animals were housed in each cage. Animals were kept on 20% food deprivation from a day prior to experimentation. Water was provided ad libitum throughout the experiment. Animals were maintained on a 12 h light/dark cycle in temperature and humidity controlled room. The experiment was carried out in an open field made up of acrylic. Rats were habituated to individual arenas (open field) for 20 minutes in the absence of any objects on day 1. […]
The same rats were placed in the same arena as they were placed in T1 trial. […] During the T1 and T2 trial, explorations of each object (defined as sniffing, licking, chewing or having moving vibrissae whilst directing the nose towards the object at a distance of less than 1 cm) were recorded using stopwatch. • T1 is the total time spent exploring the familiar objects (a1+a2). • T2 is the total time spent exploring the familiar object and novel object (a3+b). • Discriminative index=Time spent with novel object/(time spent with novel and familiar object). […]

`Cn1cc(-c2ccc(Cc3cc(C(=O)N[C@H]4CCOC[C@@H]4O)nn4cccc34)cc2)cn1` (stereo in doubt) [Example 38, N-[3-Hydroxy-tetrahydropyran-4-yl] 4-[4-(1-methyl-1H-pyrazol-4-yl)-benzyl]-pyrrolo[1,2-b]pyridazine-2-carboxamide]: the Colonic transit result in the data set on Male Swiss mice is “increased the colonic transit”. Also, the Kp in data set [1] came to 0.15 ± 0.02. Besides, the EC50 in data set [2] was 0.692 µM. In data set [3] (intravenous (bolus), 1 mg/kg), this compound gave an exposure AUC(0-t) of 7240 ± 890 ng·h/mL, a clearance of 2.31 ± 0.29 mL/min/kg and a half-life of 3.42 ± 0.29 h. For the same compound, the bioavailability in data set [3] was 60 ± 4%. Also, in data set [3] (oral (gavage), 3 mg/kg), the exposure AUC(0-t) is 13000 ± 954 ng·h/mL, the concentration peaked (Cmax) at 1860 ± 185 ng/mL and the half-life is 3.74 ± 0.15 h.

On to `O=C(N[C@H]1CCCC[C@@H]1O)c1cc(Cc2ccccc2)c2cccn2n1` [Example 4, N-[(1S,2S)-2-Hydroxycyclohexyl]-4-benzyl-pyrrolo[1,2-b]pyridazine-2-carboxamide], for which the Kp in data set [1] came out at 1.42 ± 0.1. The Inference result with Male Wistar rats [4] was “Active”. For the same compound, in the data set with Male Wistar rats [4] (choice trial 24 h after T1), the “Exploration time mean ± S.E.M, Familiar object” value amounted to 16.24 ± 1.09 s and the “Exploration time mean ± S.E.M, Novel object” value is 25.9 ± 2.54 s. Also, in data set [2], the EC50 worked out at 1.85 µM. Moreover, the “Procognitive effect in object recognition task” value with Male Wistar rats [5] is listed as “Procognitive effects were observed”. Moreover, in data set [3] (intravenous (bolus), 1 mg/kg), the area under the curve AUC(0-t) came to 677 ± 194 ng·h/mL, the clearance came out at 24 ± 6 mL/min/kg and the half-life is 0.7 ± 0.1 h. Further, the bioavailability in data set [3] amounted to 13 ± 1%. In data set [3] (oral (gavage), 3 mg/kg), this compound gave an AUC(0-t) of 259 ± 22 ng·h/mL, a Cmax of 113 ± 11 ng/mL and a half-life of 2.5 ± 0.5 h.
